Earlier results, collected in patent publication US20210330614A1, “PROCESS FOR MANUFACTURING PHENYLEPHRINE RESINATE PARTICLES; PHENYLEPHRINE RESINATE PARTICLES; AND USE OF PHENYLEPHRINE RESINATE PARTICLES IN PHARMACEUTICAL FORMULATIONS” (Johnson & Johnson Consumer Inc., priority 2014, published 2021).

Experiments:
[1] = therapeutic dose
[2] = 30 mg dose administered orally over eight hours

excreted unchanged in the urine, % of dose [1] | metabolized to m-hydroxy-phenylglycol-sulfate, % of the dose [2] | metabolized to m-hydroxymandelic acid, % of the dose [2] | metabolized to phenylephrine-glucuronide, % of the dose [2] | metabolized to phenylephrine-sulfate, % of the dose [2] | SMILES
Less than 9% | – | – | – | – | CC(=O)Nc1ccc(O)cc1 [acetaminophen, Acetaminophen]
– | 6% | 30% | 12% | 47% | CNC[C@H](O)c1cccc(O)c1.Cl [phenylephrine, (R)-1-(3-hydroxyphenyl)-2-methylaminoethanol]
